This test deals with human NaV 1.7 (Homo sapiens, UniProt Q15858). The test can be described thus: E-VIPR optical membrane potential assay with electrical stimulation. The format is cell-based. The settings on record: sodium channel inhibition; read-out: Binned Activity Data (IC50). A digest of the protocol: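 Membrane-potential read-out: background-subtracted 460 nm/580 nm ratio during a 9 s current-controlled stimulus, 400 Hz scan. Before stimulation, NaV1.7-HEK cells carried coumarin/oxonol dye and compound (final DMSO 0.625%) for 20–35 min at room temperature; tetracaine 125 μM served as positive control.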
Chain of human NaV 1.7 (Q15858 whole entry): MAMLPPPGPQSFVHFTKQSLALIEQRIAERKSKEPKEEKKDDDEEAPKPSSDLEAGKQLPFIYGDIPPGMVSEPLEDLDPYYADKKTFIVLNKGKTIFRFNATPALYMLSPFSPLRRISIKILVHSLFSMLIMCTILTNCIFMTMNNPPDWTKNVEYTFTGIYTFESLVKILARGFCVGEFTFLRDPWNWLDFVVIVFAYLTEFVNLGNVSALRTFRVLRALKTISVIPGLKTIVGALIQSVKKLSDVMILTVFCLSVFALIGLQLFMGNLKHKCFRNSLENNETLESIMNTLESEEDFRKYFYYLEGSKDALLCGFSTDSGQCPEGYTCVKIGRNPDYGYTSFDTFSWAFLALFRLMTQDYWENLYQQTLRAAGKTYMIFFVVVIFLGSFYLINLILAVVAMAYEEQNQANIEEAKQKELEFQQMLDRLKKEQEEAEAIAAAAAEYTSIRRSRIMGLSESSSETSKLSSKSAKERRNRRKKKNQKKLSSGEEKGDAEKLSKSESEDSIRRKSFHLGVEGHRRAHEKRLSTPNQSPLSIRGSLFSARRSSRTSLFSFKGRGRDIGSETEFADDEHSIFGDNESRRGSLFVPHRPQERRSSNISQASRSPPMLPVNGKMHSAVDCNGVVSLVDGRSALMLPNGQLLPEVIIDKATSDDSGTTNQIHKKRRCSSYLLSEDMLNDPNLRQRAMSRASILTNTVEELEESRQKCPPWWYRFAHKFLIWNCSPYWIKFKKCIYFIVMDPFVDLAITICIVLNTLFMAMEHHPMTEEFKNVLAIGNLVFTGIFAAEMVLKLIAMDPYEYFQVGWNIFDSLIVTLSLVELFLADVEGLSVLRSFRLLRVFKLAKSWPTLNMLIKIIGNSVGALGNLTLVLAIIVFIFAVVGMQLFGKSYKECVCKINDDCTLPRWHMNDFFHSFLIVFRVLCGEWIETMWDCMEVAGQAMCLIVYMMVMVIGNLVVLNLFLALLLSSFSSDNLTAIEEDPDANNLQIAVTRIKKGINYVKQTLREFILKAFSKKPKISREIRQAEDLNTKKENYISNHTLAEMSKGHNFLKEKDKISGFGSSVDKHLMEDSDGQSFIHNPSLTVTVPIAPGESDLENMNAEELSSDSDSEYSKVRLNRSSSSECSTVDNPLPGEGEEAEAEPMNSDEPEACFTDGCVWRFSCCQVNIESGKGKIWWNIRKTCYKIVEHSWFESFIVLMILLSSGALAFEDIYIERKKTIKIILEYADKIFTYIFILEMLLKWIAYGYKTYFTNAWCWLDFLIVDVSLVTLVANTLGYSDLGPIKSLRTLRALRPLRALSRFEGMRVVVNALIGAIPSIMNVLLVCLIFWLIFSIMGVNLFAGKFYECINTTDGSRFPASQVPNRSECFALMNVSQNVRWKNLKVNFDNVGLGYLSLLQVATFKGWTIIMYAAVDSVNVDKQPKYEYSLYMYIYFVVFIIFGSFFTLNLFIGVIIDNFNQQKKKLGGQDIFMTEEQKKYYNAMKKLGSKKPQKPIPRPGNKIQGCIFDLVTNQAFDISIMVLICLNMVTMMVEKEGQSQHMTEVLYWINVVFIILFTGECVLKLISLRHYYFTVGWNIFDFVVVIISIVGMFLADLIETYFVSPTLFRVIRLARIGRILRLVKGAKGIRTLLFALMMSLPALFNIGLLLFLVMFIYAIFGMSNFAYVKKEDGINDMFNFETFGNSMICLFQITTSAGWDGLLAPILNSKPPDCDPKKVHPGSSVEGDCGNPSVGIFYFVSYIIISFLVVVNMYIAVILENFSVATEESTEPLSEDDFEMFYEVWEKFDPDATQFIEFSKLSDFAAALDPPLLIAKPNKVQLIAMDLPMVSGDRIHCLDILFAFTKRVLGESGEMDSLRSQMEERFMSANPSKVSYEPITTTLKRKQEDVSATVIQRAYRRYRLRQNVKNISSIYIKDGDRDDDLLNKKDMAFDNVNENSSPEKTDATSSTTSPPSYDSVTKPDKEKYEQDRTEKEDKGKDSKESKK
A word on the IC50: it is the concentration needed to halve the response being measured. On to `Cn1ncc2c1-c1ccccc1OC21CCN(C(=O)c2ccc(CC(C)(C)O)cc2)CC1` [Compound 473], for which the IC50 is not above 2 µM.
Regarding `COc1cc(OC)c(C(=O)N2CCC3(CC2)Oc2ccccc2-n2cccc23)cc1CO` [Compound 474], the IC50 was 2 to 5 µM.
On to `COc1ccc(F)c(C(=O)N2CCC3(CC2)Oc2cc(Cl)ccc2-n2cccc23)c1` [Compound 475], for which the IC50 is not above 2 µM.
The same measure for `COc1ccc(F)cc1C(=O)N1CCC2(CC1)Oc1ccccc1-c1c2cnn1C` [Compound 476]: not above 2 µM; for `COc1ccc(C(=O)N2CCC3(CC2)Oc2ccccc2-n2cccc23)cc1C(F)(F)F` [Compound 477]: not above 2 µM.
The same measure for `CCOc1cccc(C(=O)N2CCC3(CC2)Oc2cc(Cl)ccc2-n2cccc23)c1` [Compound 478]: not above 2 µM; for `COc1ccc(C(=O)N2CCC3(CC2)Oc2cc(F)ccc2-n2c(C#N)ccc23)cc1C(F)(F)F` [Compound 479]: more than 5 µM.
The same measure for `COc1ccc2c(c1)-c1c(cnn1C)C1(CCN(C(=O)c3ccccc3OC(F)F)CC1)O2` [Compound 480]: not above 2 µM.
For the compound `CC(C)(C)S(=O)(=O)c1ccc(C(=O)N2CCC3(CC2)Oc2ccccc2-n2c(C(F)(F)F)ccc23)cc1` [Compound 483], the IC50 is not above 2 µM.
As for `COc1cc(C(F)(F)F)ccc1C(=O)N1CCC2(CC1)Oc1cc(Cl)ccc1-n1cccc12` [Compound 484], the IC50 is not above 2 µM.
The same measure for `CCOc1cccc(C(=O)N2CCC3(CC2)Oc2ccccc2-n2c(C#N)ccc23)c1F` [Compound 485]: not above 2 µM; for `Cn1cc2c(n1)-c1cc(F)ccc1OC21CCN(C(=O)c2ccc(C(C)(C)O)cc2)CC1` [Compound 486]: not above 2 µM; for `COc1cccc2c1c(C(=O)N1CCC3(CC1)Oc1ccccc1-c1c3cnn1C)cn2C` [Compound 487]: not above 2 µM.
`CCc1ccc(C(=O)N2CCC3(CC2)Oc2cc(Cl)ccc2-n2cccc23)cc1O` [Compound 489]: the IC50 was in the range of 2 to 5 µM.
The same measure for `Cc1cc(C(=O)N2CCC3(CC2)Oc2cccc(C)c2-n2c(C#N)ccc23)ccc1OC(C)C` [Compound 490]: not above 2 µM; for `Cc1cccc(C(=O)N2CCC3(CC2)Oc2ccccc2-c2c3cnn2C)c1` [Compound 491]: more than 5 µM.
For the compound `CNS(=O)(=O)c1ccc(C(=O)N2CCC3(CC2)Oc2ccccc2-c2c3cnn2C)cc1` [Compound 494], the half-maximal inhibitory concentration (IC50) was not above 2 µM.
The same measure for `Cn1ncc2c1-c1ccccc1OC21CCN(C(=O)c2ccc(OCCO)cc2)CC1` [Compound 496]: more than 5 µM.
`COc1cc(C(=O)N2CCC3(CC2)Oc2cc(Cl)ccc2-n2cccc23)ccc1C(C)(C)OC` [Compound 497]: the IC50 is not above 2 µM.
In the case of `CN(C)c1cc(C(=O)N2CCC3(CC2)Oc2ccccc2-c2c3cnn2C)ccn1` [Compound 499], the IC50 lay within 2 to 5 µM.
The same measure for `Cc1cc(C(=O)N2CCC3(CC2)Oc2ccccc2-c2[nH]ncc23)ccc1OC(C)C` [Compound 500]: not above 2 µM; for `CC(C)NS(=O)(=O)c1ccc(C(=O)N2CCC3(CC2)Oc2ccccc2-c2nn(C)cc23)cc1` [Compound 501]: not above 2 µM.
Regarding `Cc1ccc(C(=O)N2CCC3(CC2)Oc2cc(Cl)ccc2-n2cccc23)c(=O)n1C` [Compound 502], the IC50 is not above 2 µM.
The same measure for `Cc1nc2ccc(C(=O)N3CCC4(CC3)Oc3ccccc3-n3c(C(F)(F)F)ccc34)cc2s1` [Compound 503]: not above 2 µM; for `CS(=O)(=O)c1ccc(C(=O)N2CCC3(CC2)Oc2ccccc2-n2c(C#N)ccc23)cc1C(F)(F)F` [Compound 504]: not above 2 µM; for `O=C(c1ccc2nc(Cl)sc2c1)N1CCC2(CC1)Oc1ccccc1-n1c(C(F)(F)F)ccc12` [Compound 505]: 2 to 5 µM.
The same measure for `Cn1ncc2c1-c1ccccc1OC21CCN(C(=O)c2ccc(C(C)(C)O)cc2)CC1` [Compound 506]: not above 2 µM; for `COc1cc(C(=O)N2CCC3(CC2)Oc2ccccc2-c2c3cnn2C)ccc1OCC(N)=O` [Compound 507]: more than 5 µM.
Turning to `CC(C)S(=O)(=O)c1ccc(C(=O)N2CCC3(CC2)Oc2ccccc2-n2c(F)ccc23)cc1` [Compound 508], the IC50 was not above 2 µM.
On to `Cc1cc(C(=O)N2CCC3(CC2)Oc2ccccc2-n2c(C#N)ccc23)ccc1S(C)(=O)=O` [Compound 509], for which the IC50 is not above 2 µM.
As for `CCc1ccc(C(=O)N2CCC3(CC2)Oc2cc(C#N)ccc2-n2cccc23)cc1OC` [Compound 511], the IC50 was not above 2 µM.
The same measure for `COc1cc(C(=O)N2CCC3(CC2)Oc2cc(Cl)ccc2-n2cccc23)ccc1C1CC1` [Compound 512]: not above 2 µM; for `CS(=O)(=O)c1cccc(C(=O)N2CCC3(CC2)Oc2cc(Cl)ccc2-n2cccc23)c1` [Compound 513]: not above 2 µM; for `CC(=O)NCc1ccc2n1-c1ccccc1OC21CCN(C(=O)c2ccc(OC(C)C)c(C)c2)CC1` [Compound 514]: not above 2 µM.
As for `Cn1ncc2c1-c1ccccc1OC21CCN(C(=O)c2ccc(OC(F)F)cc2OC(F)F)CC1` [Compound 515], the IC50 is not above 2 µM.
The same measure for `Cc1c(CO)cccc1C(=O)N1CCC2(CC1)Oc1ccccc1-n1c(C#N)ccc12` [Compound 516]: not above 2 µM.
The same measure for `CC(C)Oc1ccc(C(=O)N2CCC3(CC2)Oc2ccccc2-n2cccc23)cc1C(N)=O` [Compound 517]: not above 2 µM.
The same measure for `Cn1ncc2c1-c1ccc(Cl)cc1OC21CCN(C(=O)c2ccccc2OC(F)(F)F)CC1` [Compound 518]: not above 2 µM; for `COc1cccc(F)c1C(=O)N1CCC2(CC1)Oc1ccccc1-n1c(C#N)ccc12` [Compound 519]: not above 2 µM.
Consider `CCNS(=O)(=O)c1ccc(C(=O)N2CCC3(CC2)Oc2ccccc2-c2c3cnn2C)cc1` [Compound 521], for which the IC50 is not above 2 µM.
The same measure for `Cc1ccc2c(c1)OC1(CCN(C(=O)c3ccc(S(C)(=O)=O)c(C)c3)CC1)c1ccc(C#N)n1-2` [Compound 522]: not above 2 µM; for `CNS(=O)(=O)c1ccc(C(=O)N2CCC3(CC2)Oc2ccccc2-c2nn(C)cc23)cc1C` [Compound 523]: not above 2 µM.
Take `Cn1ncc2c1-c1ccccc1OC21CCN(C(=O)c2ccc3nc(N)sc3c2)CC1` [Compound 524]: the IC50 was not above 2 µM.
The same measure for `Cc1cc(C(=O)N2CCC3(CC2)Oc2ccccc2-c2ncn(C)c23)ccc1OC(C)C` [Compound 525]: not above 2 µM; for `CCn1ncc2c1-c1ccccc1OC21CCN(C(=O)c2cccc(F)c2OC(F)F)CC1` [Compound 528]: not above 2 µM; for `COc1cc(C(=O)N2CCC3(CC2)Oc2cc(Cl)ccc2-n2cccc23)ccc1C(C)(C)C` [Compound 529]: not above 2 µM.
For `N#Cc1ccc2n1-c1ccccc1OC21CCN(C(=O)c2ccc(S(=O)(=O)C(F)F)cc2)CC1` [Compound 530], the IC50 is not above 2 µM.
For the compound `CC(C)Oc1ccc(C(=O)N2CCC3(CC2)Oc2ccccc2-n2c(C(F)(F)F)ccc23)cc1CO` [Compound 531], the IC50 was not above 2 µM.
The same measure for `COCCOc1cc(F)c(C(=O)N2CCC3(CC2)Oc2ccccc2-n2cccc23)cc1OC` [Compound 532]: not above 2 µM; for `COc1cc(C(=O)N2CCC3(CC2)Oc2cccnc2-n2cccc23)ccc1O[C@@H]1CCOC1` [Compound 533]: not above 2 µM.
The same measure for `COc1cc(OC)cc(C(=O)N2CCC3(CC2)Oc2cc(Cl)ccc2-n2cccc23)c1` [Compound 534]: not above 2 µM.
